In the NIST ThermoML archive (doi:10.1016/j.fluid.2016.02.004):
Numbers after ± are expanded uncertainties.

Test: activity coefficient (dimensionless); of the first substance listed, at infinite dilution; xn = mol fraction of the nth substance listed
Settings: Liquid, Chromatography, x1 = 0

SMILES | activity coefficient (318.15 K) | activity coefficient (328.15 K) | activity coefficient (338.15 K) | activity coefficient (348.15 K) | activity coefficient (358.15 K) | activity coefficient (368.15 K)
C#CCCCCCC [1-octyne] + CCCCn1cc[n+](C)c1.N#CN=C=[N-] | 12.5 ± 0.9 | 13 ± 0.9 | 13.4 ± 0.9 | 13.9 ± 1 | 14.4 ± 1 | 14.8 ± 1
c1ccsc1 [thiophene] + CCCCn1cc[n+](C)c1.N#CN=C=[N-] | 1.14 ± 0.07 | 1.22 ± 0.08 | 1.29 ± 0.08 | 1.36 ± 0.09 | 1.43 ± 0.09 | 1.5 ± 0.1
CCCC(=O)OC [methyl butanoate] + CCCCn1cc[n+](C)c1.N#CN=C=[N-] | 3.46 ± 0.24 | 3.61 ± 0.25 | 3.75 ± 0.26 | 3.9 ± 0.27 | 4.03 ± 0.27 | 4.17 ± 0.28
CCCO [propan-1-ol] + CCCCn1cc[n+](C)c1.N#CN=C=[N-] | 0.826 ± 0.053 | 0.835 ± 0.054 | 0.844 ± 0.054 | 0.853 ± 0.055 | 0.862 ± 0.055 | 0.871 ± 0.056
C=Cc1ccccc1 [styrene] + CCCCn1cc[n+](C)c1.N#CN=C=[N-] | 2.15 ± 0.15 | 2.28 ± 0.16 | 2.41 ± 0.16 | 2.53 ± 0.17 | 2.65 ± 0.18 | 2.78 ± 0.19
CCC(C)(C)OC [2-methoxy-2-methylbutane] + CCCCn1cc[n+](C)c1.N#CN=C=[N-] | 10.7 ± 0.7 | 11.1 ± 0.8 | 11.5 ± 0.8 | 11.8 ± 0.8 | 12.2 ± 0.8 | 12.5 ± 0.9
CC(C)c1ccccc1 [isopropylbenzene] + CCCCn1cc[n+](C)c1.N#CN=C=[N-] | 7.3 ± 0.5 | 7.52 ± 0.51 | 7.72 ± 0.53 | 7.93 ± 0.54 | 8.11 ± 0.55 | 8.3 ± 0.6
CCC(C)O (configuration not stated) [butan-2-ol] + CCCCn1cc[n+](C)c1.N#CN=C=[N-] | 1.13 ± 0.07 | 1.14 ± 0.07 | 1.16 ± 0.07 | 1.17 ± 0.07 | 1.18 ± 0.08 | 1.19 ± 0.08
C=CCCCCC [1-heptene] + CCCCn1cc[n+](C)c1.N#CN=C=[N-] | 39 ± 2.7 | 38.5 ± 2.6 | 38.1 ± 2.6 | 37.7 ± 2.6 | 37.3 ± 2.6 | 37 ± 2.5
CCCC=O [butanal] + CCCCn1cc[n+](C)c1.N#CN=C=[N-] | 1.61 ± 0.11 | 1.67 ± 0.11 | 1.74 ± 0.12 | 1.8 ± 0.12 | 1.87 ± 0.13 | 1.93 ± 0.13
CCOC(C)=O [ethyl acetate] + CCCCn1cc[n+](C)c1.N#CN=C=[N-] | 2.57 ± 0.17 | 2.68 ± 0.18 | 2.79 ± 0.19 | 2.91 ± 0.2 | 3 ± 0.2 | 3.11 ± 0.21
CCCc1ccccc1 [propylbenzene] + CCCCn1cc[n+](C)c1.N#CN=C=[N-] | 7.36 ± 0.5 | 7.57 ± 0.52 | 7.78 ± 0.53 | 7.98 ± 0.54 | 8.15 ± 0.56 | 8.35 ± 0.57
